We go through six molecules from patent US9132082B2, “Compositions and methods for inhibiting gastric acid secretion” (Vecta, Ltd., priority 2005, dated 2015).

Experiment [1] concerns nocturnal gastric acid secretion. Briefly: Clinical study: bedtime omeprazole with succinic acid one hour later, gastric pH probe. The experiment is classed as in vivo, human. The following applies: average n = 7. On the procedure: Succinic Acid was administered one hour following Omeprazole administration. Gastric pH was measured on Day 1 and 5 using a pH probe. The pH probe was inserted into the distal portion of the stomach and located 20 cm below the lower esophageal sphincter. Baseline measurements of gastric pH were performed before omeprazole administration and during the following 24 hours. Standard meals were administered during pH monitoring. Blood samples for PK analysis of Omeprazole were drawn on Day 1 and 5. After a washout period of at least 14 days, the same subjects were administered with Omeprazole 40 mg alone.

Another experiment concerns gastric pH. Briefly: Further clinical study: omeprazole and SA capsules co-administered at bedtime, 24 h gastric pH. In kind it is in vivo, human. Particulars: 10:00 pm on empty stomach. Here is the method: In a further clinical study; healthy human volunteers were administered with Omeprazole and SA capsules which were co-administered at bed-time: Treatment T1-40 mg Omeprazole plus 600 mg SA; Treatment T2-40 mg Omeprazole plus 300 mg SA; Treatment T3-20 mg Omeprazole plus 300 mg SA. The study included gastric pH measurements on day 1 (first dose), day 3 (third dose) and day 5 (fifth dose). Study medications were administered at 10:00 pm on empty stomach and pH measurements were recorded for 24 hrs. The percentage time of gastric pH above 4 following the administration of SA and Omeprazole was calculated after the first dose, the third dose and the fifth dose.

The subject of experiment [2] is gastric acid secretion. Briefly: 3-way crossover clinical trial of Cap-in-Cap OMP/SA versus OMP, 24 hour intra-gastric pH. In kind it is in vivo, human. The following applies: OMP/SA at bedtime without food, OMP 20 mg before breakfast. Here is the method: Thirty-six (36), H. pylori negative, healthy human volunteers received OMP 20 mg/SA 300 mg or OMP 40 mg/SA 300 mg at bedtime without food formulated as Cap-in-Cap capsules and OMP 20 mg dosed on an empty stomach before breakfast. These drugs were tested in a 3-way, randomized crossover study. […] Each treatment was administered once daily, for 5 consecutive days with a washout period of 21-25 days between treatments. 24 Hour intra-gastric pH monitoring was performed following the fifth dose (day 5).

In the next experiment the test system is gastric acid output. The following applies: extracted from fermented alcoholic beverages; Teyssen et al.; cited from earlier work.
Another experiment deals with frog mucosa. Particulars: ex vivo model of frog mucosa; cited from earlier work.
Experiment [3] deals with gastric acid secretion. Briefly: Conscious pylorus-ligated rats: pantoprazole alone or with succinic or maleic acid. The experiment is classed as in vivo. Particulars: maleic acid 14.7 mg/kg with pantoprazole 3 mg/kg; FIG. 4. On the procedure:
This experimental model permits the analysis of the effect of drugs on gastric acid secretion in conscious animals and avoids the effect of anesthesia on gastric acid secretion. […] The ligature was placed around the esophagus, the stomach removed and gastric content was collected. Following centrifugation, the gastric output and the pH of the gastric juice samples was determined.

Experiment [4] has as its system gastric acid secretion. Particulars: 15 mg/kg per os, pylorus ligated 30 min later, gastric juice after 60 min; FIG. 1. Here is the method:
Rats were administered (per os) with 15 mg/kg of sodium succinate (Na-SA) using gavage. 30 minutes later the rats were anesthetized with ketamine/domitor and the pylorus was ligated. Following additional 60 min, gastric juice was collected from the gastric lumen. Acid output was determined by titration with NaOH. Total acid output expressed in mEq HCl was calculated by multiplying the sample volume by the acid concentration. Results are expressed as means±SEM of 12 animals from each experimental group.

Experiment [5] relates to gastric acid secretion. Particulars: administered after ligation of the pylorus; FIG. 5. Here is the method:
The possibility that succinic acid induces gastric acid secretion via local effect on the gastric lumen was tested in animals in which sodium succinate was administered after the ligation of the pylorus.

Where [6] appears, read: Day 1, bedtime dosing without a meal.
The mark [7] stands for this setting: Day 5, bedtime dosing without a meal.

In the case of `COc1ccc2[nH]c([S+]([O-])Cc3ncc(C)c(OC)c3C)nc2c1` (stereo not drawn) [Omeprazole, omeprazole], in experiment [1] (setting [6]), the “2:00-4:00 AM (% time pH > 4)” value was found to be 32.72%, the “4:00-6:00 AM (% time pH > 4)” value is 52.30% and the “12:00-2:00 AM (% time pH > 4)” value is reported as 29.57%. In experiment [1] (setting [7]), the “2:00-4:00 AM (% time pH > 4)” value is given as 53.11%, the “4:00-6:00 AM (% time pH > 4)” value is 64.94% and the “12:00-2:00 AM (% time pH > 4)” value is given as 52.31%. Also, in the experiment with gastric pH (Fifth dose), the “% time with pH > 4 (nocturnal hours only)” value is on record as “Fifth dose: 49%” and the “% time with pH > 4 (total 24 h)” value is “Fifth dose: 64%”. Besides, in the experiment on gastric pH (First dose), the “% time with pH > 4 (nocturnal hours only)” value is recorded as “First dose: 25%” and the “% time with pH > 4 (total 24 h)” value is “First dose: 41%”. In the experiment with gastric acid secretion [2] (12 am-8 am, day 5), the “Nighttime % time pH < 3” value stood at 65.5%, the “Nighttime % time pH > 4” value was determined as 27.2% and the “Nighttime % time pH > 5” value turned out to be 11.5%. In the experiment on gastric acid secretion [2] (day 5 (fifth dose)), the “24-hour % time pH < 3” value was 31.2%, the “24-hour % time pH > 4” value was 47.6% and the “24-hour % time pH > 5” value is 21.6%.
Consider `O=C(O)CCC(=O)O` [Succinic acid, succinic acid], for which, in the experiment on gastric acid output, the “gastric acid output in humans” value is recorded as “stimulate gastric acid output”. Moreover, the proton secretion result with frog mucosa is “may stimulates proton secretion”.
In the case of `O=C(O)CCC(=O)C(=O)O` [alpha-ketoglutarate], the proton secretion entry in the experiment on frog mucosa is “may stimulates proton secretion”.
Turning to `O=C(O)CC(O)C(=O)O` (stereo not drawn) [malate], the proton secretion entry in the experiment on frog mucosa is “may stimulates proton secretion”.
On to `O=C(O)/C=C\C(=O)O` [maleic acid], for which, in the experiment with gastric acid secretion [3], the “inhibitory effect of pantoprazole on gastric acid secretion” value was “enhanced the inhibitory effect of pantoprazole”. The “gastric acid output in humans” value in the experiment on gastric acid output is “stimulate gastric acid output”.
For `O=C([O-])CCC(=O)[O-].[Na+].[Na+]` [sodium succinate], in the experiment on gastric acid secretion [4], the “gastric acid secretion (total acid output)” value is “significantly enhanced gastric acid secretion”. Also, the acid secretion result with gastric acid secretion [5] is recorded as “capable of inducing acid secretion”.
